{"source": "patent US11293019B2", "about": "“Chimeric genome engineering molecules and methods” (GFLAS Life Sciences, Inc., priority 2017, dated 2022)", "key": {"PCR dsDNA product": {"system": "PCR dsDNA product", "assay": "SpCas9 activity with 1 mM ZnSO4 / Mg2+ deficiency at different pH", "assay_type": "biochemical", "conditions": "1 mM ZnSO4, range of pH values", "method": "For DNA (50 ng) NbFTa13_4 PCR product, 3 μl (150 ng) was used; for SpCas9-BPNLS (3.3 μg) 1/10 dilution (333 ng), 1.5 μl (0.5 μg) was used; for gRNA (1.5 μg) (NbFTa13_3/4-2), 1/10 dilution (150 ng), 3.5 μg (500 ng) was used; for pH (+1 mM ZnSO4, 2× cutsmart), 10 μl was used; for DW, to 20 μl was used.\nFor PCR dsDNA product, 150 ng was used; for SpCas9:BPNLS, 1 μg was used; for gRNA, 500 ng was used; for pH titration (100 mM NaCal, 50 mM Tris-HCl+1 mM ZnSO4), 10 ul was used, for DW, up to 20 μl was used.\nActivity of SpCas9 and SpCas9-mungbean nuclease chimeric polypeptide was tested in the presence of 1 mM ZnSO4 at a range of pHs."}, "[1]": {"system": "HEK293 cells and plant protoplasts", "assay": "Summary of knock-out / knock-in performance (HEK293 cells and plant protoplasts)", "assay_type": "cell-based", "conditions": "in vitro and in vivo HEK293 cells", "source_text": "The apparent rates of mutations after the action of CRISPR genome editing tools are relatively low in vivo due to outperformance of error-free repair mechanisms. To enhance both the rate of indel mutation and HR recombination, genome editing tools were constructed by translational fusion of DNA modifying enzymes (DME), DNA binding protein (DBP), or terminal deoxyribonucleotidyl transferase (TdT) at either upstream or downstream of CRISPR genome editing enzymes. In one embodiment, a variant irreversibly deleted the DNA at the CRISPR enzyme-dependent double strand break sites in 5′->3′ direction, and the resulting modified ends with 3′-OH overhang can better serve HR repairs in presence of repair template. Disclosed herein are constructs that display functional enhancement of the CRISPR-Cas enzymes. […] Fifth, off-target effects in Cas9-RecJ embodied the similar efficiency to Cas9 off-targeting in whole genome sequencing and targeted deep sequencing. […] FIG. 74-FIG. 125 show said new genome editing fusion constructs, knock-out and knock-in efficiency and percent change in efficiency over a control.\nThe apparent rates of mutations after the action of CRISPR genome editing tools are relatively low in vivo due to outperformance of error-free repair mechanisms. […]"}, "human DHCR7": {"system": "human DHCR7", "assay": "Genome editing after zinc sulfate treatment, HEK293, T7E1 assay", "assay_type": "cell-based", "conditions": "for % indels: +RNP", "protocol": "(§1) The concentrations of 80 mM 160 mM of zinc sulfate were treated in HEK293 with Cas9 variants. HEK293 cells were harvested at 12 h, 24 h, and 48 h after zinc sulfate treatment. In terms of RNP treatment, HEK293 cells were harvested at 24 h, 36 h, and 60 h.\nas §1\nCell culture. HEK 293 cells were maintained in DMEM media with 10% Fetal bovine serum FBS and P/S, at 37° C. in CO2 incubator. 150,000 cells were transferred to a 24 well plate in […] of the growth medium a day before transfection.\nTransfection. For Cas9 variants transfection to the cells, purified each Cas9 variant protein was added to up to […] of Opti-MEM serum reduced medium in a micro tube, followed by addition of 120 ng guide RNA. The molar ratio of the guide RNA to Cas9 protein was kept nearly at 1.2:1 ratio(1). The mixture, then, mixed well by gentle tapping and incubated for 10 min at RT. In a separate tube. […] of Lipofectamin 3000 transfection reagent was added to […] of Opti-MEM and […] of the diluted transfection reagent was added to the guide RNA and Cas9 protein mixture, followed by incubation for 15 min at RT and […] mixture was added to the cells.\nGenomic DNA extraction. […] Briefly cells were washed with PBS once and treated with T.E., followed by incubation at 37, for 5 min. 1.2 ml of growth media were added to cells to harvest cell and then, spin downed at RT, 250×g, for 5 min.\nAmplification of genomic loci of human DHCR7. For amplification of genomic loci of human DHCR7, two different PCR primer pairs were used. […] Genomic DNA was amplified using specific primers and cleaned up using Wizard® SV gel and PCR clean-Up system. 200 ng PCR cleaned-up amplified DNA was added in a PCR-tube, followed by addition of […] of NEB buffer 2 with up to 9 ml of distilled water (D/W). The mixture was then re-annealed in a PCR machine using following condition: 98° C. for 5 min for denaturation; cooling down to 85° C. at −2° C./sec, in turn, to 25° C. at −0.1/sec and kept at 4° C., in order to prevent denaturation of heteroduplex formation of the amplified DNA. […] of T7E1 endonuclease was added to the mixture and incubated at 37° C. for 60 min.\nImage Analysis. For analysis of gene modification, 2% gel was used image was obtained with and Alphaimager 2200 image analysis software was used for analysis. % indel was computed with following equation: 1−((1-fraction cleaved) ½)(2)."}, "[2]": {"system": "PCR product (901 bp SpyCas9; 1,431 bp FnCpf1)", "assay": "Inactivation of SpyCas9 and FnCpf1 by stop solution / 1 mM ZnSO4, in vitro cleavage time course", "assay_type": "biochemical"}}, "note": "Where two headings read alike, the source gives them in different places."}
{"molecule": "O=S(=O)([O-])[O-].[Zn+2]", "note": "[ZnSO4, zinc sulfate]", "values": [{"measurement": "abolished Cas9 activity", "setting": "PCR dsDNA product", "result": "up to 90%"}, {"measurement": "HEK293 cell survival", "setting": "HEK293 cells; 0 to 120 mM zinc sulfate", "result": "allowed HEK293 cell to survive"}, {"measurement": "HEK293 cell survival", "setting": "HEK293 cells; 160 mM and 200 mM zinc sulfate", "result": "did not allow HEK293 live well without toxicity effect"}, {"measurement": "quenching of Cas9 activity", "setting": "[1]", "result": "effectively quenched Cas9 activity"}, {"measurement": "% indels", "setting": "human DHCR7; 80 ZnSO4 (mM) at 12 h, harvest 24 h", "result": 2.9, "unit": "%"}, {"measurement": "% indels", "setting": "human DHCR7; 80 ZnSO4 (mM) at 12 h, harvest 60 h", "result": 5.4, "unit": "%"}, {"measurement": "% indels", "setting": "human DHCR7; 160 ZnSO4 (mM) at 12 h, harvest 24 h", "result": 1.8, "unit": "%"}, {"measurement": "% indels", "setting": "human DHCR7; 160 ZnSO4 (mM) at 12 h, harvest 36 h", "result": 2.7, "unit": "%"}, {"measurement": "% indels", "setting": "human DHCR7; 160 ZnSO4 (mM) at 12 h, harvest 60 h", "result": 5.8, "unit": "%"}, {"measurement": "modified dsDNA detected via T7E1 assay", "setting": "human DHCR7; 48 h hpt with RNP, 80 μM ZnSO4 at 24 hpt, direct", "result": 12.62, "unit": "%"}, {"measurement": "modified dsDNA detected via T7E1 assay", "setting": "human DHCR7; 48 h hpt with RNP, 80 μM ZnSO4 at 24 hpt, media exchange", "result": 9.86, "unit": "%"}, {"measurement": "modified dsDNA detected via T7E1 assay", "setting": "human DHCR7; 48 h hpt with RNP, 160 μM ZnSO4 at 24 hpt, direct", "result": 3.68, "unit": "%"}, {"measurement": "modified dsDNA detected via T7E1 assay", "setting": "human DHCR7; 48 h hpt with RNP, 160 μM ZnSO4 at 24 hpt, media exchange", "result": 4.96, "unit": "%"}, {"measurement": "modified dsDNA detected via T7E1 assay", "setting": "human DHCR7; 72 h hpt with RNP, 80 μM ZnSO4 at 24 hpt, direct", "result": 2.8, "unit": "%"}, {"measurement": "modified dsDNA detected via T7E1 assay", "setting": "human DHCR7; 72 h hpt with RNP, 80 μM ZnSO4 at 24 hpt, media exchange", "result": 9.32, "unit": "%"}, {"measurement": "modified dsDNA detected via T7E1 assay", "setting": "human DHCR7; 72 h hpt with RNP, 160 μM ZnSO4 at 24 hpt, direct", "result": 1.87, "unit": "%"}, {"measurement": "modified dsDNA detected via T7E1 assay", "setting": "human DHCR7; 72 h hpt with RNP, 160 μM ZnSO4 at 24 hpt, media exchange", "result": 1.41, "unit": "%"}, {"measurement": "genome editing efficacy after zinc sulfate treatment", "setting": "human DHCR7; HEK293 with Cas9 variants", "result": "reduced"}, {"measurement": "uncut dsDNAs not digested any more after ZnSO4 treatment", "setting": "[2]", "result": 65, "unit": "%"}]}
